Source: US20250282827A1, “LIPIDATED POLYMYXIN ANALOGUES” (priority 2021, published 2025)
Converted amounts (≈) assume the structure as drawn. Where two headings read alike, the source gives them in different places. Positions of bridges follow the written chain, without caps; N, C: chain ends. Non-standard residues stand in square brackets, D forms with d. Residues, ends and D or L forms follow the SMILES beside them. *: point of attachment. Ethyl(2-propionyloxy) = CCC(=O)OCC*; Ethyl(2-OPiv) = CC(C)(C)C(=O)OCC*; Ethyl(2-OBz) = O=C(OCC*)c1ccccc1; Lauroyl = CCCCCCCCCCCC(=O)*; hCys = N[C@@H](CCS)C(=O)O; Octanoyl = CCCCCCCC(=O)*; Dab = NCC[C@H](N)C(=O)O; X4 = CCCCCCCC(=O)OCC*; Butyryl = CCCC(=O)*; X1 = CCCCCC(=O)OCC*; X13 = CCCCC(=O)OCC*; Mpa = O=C(O)CCS

What was measured:
E. coli ATCC 25922 = assay type: cell-based, Escherichia coli
Source text: (§1) All 81 compounds prepared in Examples 2 and 3 underwent screening against a panel of Gram-negative bacterium to assess their ability to inhibit bacterial growth. […] The median value is presented.

A. baumannii ATCC 19606 = assay type: cell-based, Acinetobacter baumannii
Source text: as §1

P. aeruginosa ATCC 27853 = assay type: cell-based, Pseudomonas aeruginosa
Source text: as §1

K. pneumoniae ATCC 33495 = assay type: cell-based, Klebsiella pneumoniae
Source text: as §1

[1] = test system: K. pneumoniae ATCC 700603; assay type: cell-based, Klebsiella pneumoniae
Source text: as §1

[2] = test system: K. pneumoniae ATCC MS6671; assay type: cell-based, Klebsiella pneumoniae
Source text: as §1

E. coli ATCC MS8345 = assay type: cell-based, Escherichia coli
Source text: as §1
Expansion of the polymyxin macrocycle by substituting […]) offered little advantage in antimicrobial activity but was generally well tolerated although for A. baumanni and P. aeruginosa this was detrimental.

[3] = colistin-resistant strain, median of triplicate

Row | SMILES | MIC E. coli ATCC 25922 (E. coli ATCC 25922; ATCC 25922) [µg/mL] | MIC A. baumannii ATCC 19606 (A. baumannii ATCC 19606; ATCC 19606) [µg/mL] | MIC P. aeruginosa ATCC 27853 (P. aeruginosa ATCC 27853; ATCC 27853) [µg/mL] | MIC K. pneumoniae ATCC 33495 (K. pneumoniae ATCC 33495; ATCC 33495) [µg/mL] | MIC K. pneumoniae ATCC 700603 ([1]; ATCC 700603) [µg/mL] | MIC K. pneumoniae ATCC MS6671 ([2]; ATCC MS6671) [µg/mL] | MIC E. coli ATCC MS8345 (E. coli ATCC MS8345; ATCC MS8345) [µg/mL] | MIC E. coli ATCC 25922 (E. coli ATCC 25922; median of triplicate) [µg/mL] | MIC A. baumannii ATCC 19606 (A. baumannii ATCC 19606; median of triplicate) [µg/mL] | MIC P. aeruginosa ATCC 27853 (P. aeruginosa ATCC 27853; median of triplicate) [µg/mL] | MIC K. pneumoniae ATCC 33495 (K. pneumoniae ATCC 33495; median of triplicate) [µg/mL] | MIC K. pneumoniae ATCC 700603 ([1]; median of triplicate) [µg/mL] | MIC K. pneumoniae ATCC MS6671 ([2]; median of triplicate) [µg/mL] | MIC E. coli ATCC MS8345 (E. coli ATCC MS8345; [3]) [µg/mL]
1 | CCCC(=O)N[C@@H](CSCCOC(=O)c1ccccc1)C(=O)N[C@@H](CCN)C(=O)N[C@H](C(=O)N[C@@H](CCN)C(=O)N[C@H]1CCNC(=O)[C@H]([C@@H](C)O)NC(=O)[C@H](CCN)NC(=O)[C@H](CCN)NC(=O)[C@H](CSCCOC(=O)c2ccccc2)NC(=O)[C@@H](Cc2ccccc2)NC(=O)[C@H](CCN)NC1=O)[C@@H](C)O [Compound 50] (Butyryl-C(Ethyl(2-OBz))[Dab]T[Dab][Dab][Dab][dF]C(Ethyl(2-OBz))[Dab][Dab]T; lactam 5-C) | – | – | – | – | – | – | – | 0.5 (≈ 0.328 µM) | 1 to 2 | 1 (≈ 0.657 µM) | 0.5 to 1 | 1 (≈ 0.657 µM) | >32 | 16 (≈ 10.5 µM)
2 | CCCCCCCC(=O)N[C@@H](CSCCOC(=O)c1ccccc1)C(=O)N[C@@H](CCN)C(=O)N[C@H](C(=O)N[C@@H](CCN)C(=O)N[C@H]1CCNC(=O)[C@H]([C@@H](C)O)NC(=O)[C@H](CCN)NC(=O)[C@H](CCN)NC(=O)[C@H](CSCCOC(=O)c2ccccc2)NC(=O)[C@@H](Cc2ccccc2)NC(=O)[C@H](CCN)NC1=O)[C@@H](C)O [Compound 51] (Octanoyl-C(Ethyl(2-OBz))[Dab]T[Dab][Dab][Dab][dF]C(Ethyl(2-OBz))[Dab][Dab]T; lactam 5-C) | – | – | – | – | – | – | – | 2 (≈ 1.27 µM) | 1 to 2 | 2 (≈ 1.27 µM) | 2 (≈ 1.27 µM) | 2 to 4 | >32 | 2 to 4
3 | CCCCCCCCCCCC(=O)N[C@@H](CSCCOC(=O)c1ccccc1)C(=O)N[C@@H](CCN)C(=O)N[C@H](C(=O)N[C@@H](CCN)C(=O)N[C@H]1CCNC(=O)[C@H]([C@@H](C)O)NC(=O)[C@H](CCN)NC(=O)[C@H](CCN)NC(=O)[C@H](CSCCOC(=O)c2ccccc2)NC(=O)[C@@H](Cc2ccccc2)NC(=O)[C@H](CCN)NC1=O)[C@@H](C)O [Compound 52] (Lauroyl-C(Ethyl(2-OBz))[Dab]T[Dab][Dab][Dab][dF]C(Ethyl(2-OBz))[Dab][Dab]T; lactam 5-C) | – | – | – | – | – | – | – | 2 to 4 | 2 to 4 | 4 (≈ 2.45 µM) | 2 to 4 | 4 (≈ 2.45 µM) | >32 | 2 to 4
4 | CCC(=O)OCCSCCC(=O)N[C@@H](CCN)C(=O)N[C@H](C(=O)N[C@@H](CCN)C(=O)N[C@H]1CCNC(=O)[C@H]([C@@H](C)O)NC(=O)[C@H](CCN)NC(=O)[C@H](CCN)NC(=O)[C@H](CC(C)C)NC(=O)[C@@H](Cc2ccccc2)NC(=O)[C@H](CCN)NC1=O)[C@@H](C)O [Compound 59] ([Mpa](Ethyl(2-propionyloxy))[Dab]T[Dab][Dab][Dab][dF]L[Dab][Dab]T; lactam 5-C) | 0.5 (≈ 0.4 µM) | 32 (≈ 25.6 µM) | 2 (≈ 1.6 µM) | 0.5 (≈ 0.4 µM) | 1 (≈ 0.799 µM) | >32 | >32 | – | – | – | – | – | – | –
5 | CCCCCC(=O)OCCSC[C@@H](N)C(=O)N[C@H](C(=O)N[C@@H](CCN)C(=O)N[C@H]1CCNC(=O)[C@H]([C@@H](C)O)NC(=O)[C@H](CCN)NC(=O)[C@H](CCN)NC(=O)[C@H](CC(C)C)NC(=O)[C@@H](Cc2ccccc2)NC(=O)[C@H](CCN)NC1=O)[C@@H](C)O [Compound 91] (H-[dC](X1)T[Dab][Dab][Dab][dF]L[Dab][Dab]T; lactam 4-C) | 1 (≈ 0.827 µM) | 4 (≈ 3.31 µM) | 2 (≈ 1.65 µM) | 1 (≈ 0.827 µM) | 2 (≈ 1.65 µM) | >32 | 16 (≈ 13.2 µM) | – | – | – | – | – | – | –

Now from value to compound, other results behind:

Row | MIC E. coli ATCC 25922 (E. coli ATCC 25922; ATCC 25922) [µg/mL] | MIC A. baumannii ATCC 19606 (A. baumannii ATCC 19606; ATCC 19606) [µg/mL] | MIC P. aeruginosa ATCC 27853 (P. aeruginosa ATCC 27853; ATCC 27853) [µg/mL] | MIC K. pneumoniae ATCC 33495 (K. pneumoniae ATCC 33495; ATCC 33495) [µg/mL] | MIC K. pneumoniae ATCC 700603 ([1]; ATCC 700603) [µg/mL] | MIC K. pneumoniae ATCC MS6671 ([2]; ATCC MS6671) [µg/mL] | MIC E. coli ATCC MS8345 (E. coli ATCC MS8345; ATCC MS8345) [µg/mL] | SMILES | MIC E. coli ATCC 25922 (E. coli ATCC 25922; median of triplicate) [µg/mL] | MIC A. baumannii ATCC 19606 (A. baumannii ATCC 19606; median of triplicate) [µg/mL] | MIC P. aeruginosa ATCC 27853 (P. aeruginosa ATCC 27853; median of triplicate) [µg/mL] | MIC K. pneumoniae ATCC 33495 (K. pneumoniae ATCC 33495; median of triplicate) [µg/mL] | MIC K. pneumoniae ATCC 700603 ([1]; median of triplicate) [µg/mL] | MIC K. pneumoniae ATCC MS6671 ([2]; median of triplicate) [µg/mL] | MIC E. coli ATCC MS8345 (E. coli ATCC MS8345; [3]) [µg/mL]
6 | 0.25 (≈ 0.181 µM) | 2 to 4 | 16 (≈ 11.6 µM) | 0.25 to 0.5 | 0.25 to 0.5 | >32 | 16 to 32 | CCC(=O)OCCSC[C@@H]1NC(=O)[C@@H](Cc2ccccc2)NC(=O)[C@H](CCN)NC(=O)[C@@H](NC(=O)[C@H](CCN)NC(=O)[C@@H](NC(=O)[C@H](CCN)NC(=O)[C@@H](N)CSCCOC(=O)C(C)(C)C)[C@@H](C)O)CCNC(=O)[C@H]([C@@H](C)O)NC(=O)[C@H](CCN)NC(=O)[C@H](CCN)NC1=O [Compound 45] (H-C(Ethyl(2-OPiv))[Dab]T[Dab][Dab][Dab][dF]C(Ethyl(2-propionyloxy))[Dab][Dab]T; lactam 5-C) | – | – | – | – | – | – | –
7 | 0.25 (≈ 0.195 µM) | 2 (≈ 1.56 µM) | 0.5 (≈ 0.39 µM) | 0.25 (≈ 0.195 µM) | 0.25 to 0.5 | >32 | 16 (≈ 12.5 µM) | CCC(=O)OCCSCC[C@H](N)C(=O)N[C@@H](CCN)C(=O)N[C@H](C(=O)N[C@@H](CCN)C(=O)N[C@H]1CCNC(=O)[C@H]([C@@H](C)O)NC(=O)[C@H](CCN)NC(=O)[C@H](CCN)NC(=O)[C@H](CC(C)C)NC(=O)[C@@H](Cc2ccccc2)NC(=O)[C@H](CCN)NC1=O)[C@@H](C)O [Compound 60] (H-[hCys](Ethyl(2-propionyloxy))[Dab]T[Dab][Dab][Dab][dF]L[Dab][Dab]T; lactam 5-C) | – | – | – | – | – | – | –
8 | 4 (≈ 3.35 µM) | >16 | 4 (≈ 3.35 µM) | 2 (≈ 1.67 µM) | 4 (≈ 3.35 µM) | >32 | >32 | CCCCC(=O)OCCSC[C@@H](N)C(=O)N[C@H](C(=O)N[C@@H](CCN)C(=O)N[C@H]1CCNC(=O)[C@H]([C@@H](C)O)NC(=O)[C@H](CCN)NC(=O)[C@H](CCN)NC(=O)[C@H](CC(C)C)NC(=O)[C@@H](Cc2ccccc2)NC(=O)[C@H](CCN)NC1=O)[C@@H](C)O [Compound 90] (H-[dC](X13)T[Dab][Dab][Dab][dF]L[Dab][Dab]T; lactam 4-C) | – | – | – | – | – | – | –
9 | 1 (≈ 0.809 µM) | 2 (≈ 1.62 µM) | 2 (≈ 1.62 µM) | 2 (≈ 1.62 µM) | 2 (≈ 1.62 µM) | >32 | 16 (≈ 12.9 µM) | CCCCCCCC(=O)OCCSC[C@@H](N)C(=O)N[C@H](C(=O)N[C@@H](CCN)C(=O)N[C@H]1CCNC(=O)[C@H]([C@@H](C)O)NC(=O)[C@H](CCN)NC(=O)[C@H](CCN)NC(=O)[C@H](CC(C)C)NC(=O)[C@@H](Cc2ccccc2)NC(=O)[C@H](CCN)NC1=O)[C@@H](C)O [Compound 92] (H-[dC](X4)T[Dab][Dab][Dab][dF]L[Dab][Dab]T; lactam 4-C) | – | – | – | – | – | – | –
